Assay results taken from US20180193493A1, “RENAL IMAGING AGENT” (NIHON MEDI-PHYSICS CO., LTD., priority 2014, published 2018).

Key:
[1] = tested on: CKD model animals (adriamycin-treated Lewis rats), kidneys excluding the renal pelvis; test: PET imaging (static, SUV) in CKD models; format: in vivo
Protocol: (§1) Adriamycin (from Wako Pure Chemical Industries, Ltd., 7.5 mg/kg) was administered to 13 Lewis rats (male, 8-week-old, available from Japan SLC, Inc.) via the tail vein, and urinary protein was measured in accordance with the Bradford method on day 13 after the administration, for 11 cases excluding two dead cases. Of these, four cases having a high urinary protein level were selected as CKD model animals, and used in the below-described examples on day 14 after the administration of adriamycin.
(§2) ^18F-HIC101 (radiochemical purity: 84.2%) was administered to the four CKD models prepared in Example 1 at 18.6±0.9 MBq/rat and to four healthy models at 17.0±2.7 MBq/rat, and after 80 minutes from the administration, static imaging was performed using a PET system for animals (eXplore Vista from GE). The collection conditions were 10 minutes at an energy window of 250 to 700 keV. The collected data were reconstructed and imaged using the 3D-OSEM method. From the images, the average of maximum values of SUV (standardized uptake value) of the kidneys (the region of interest (ROI) was set excluding the renal pelvis) and the average value of SUV of normal tissue in each slice were measured. Based on these values, the lesion-to-normal tissue ratio and the normal kidney-to-normal tissue ratio were used for evaluation. Student's t-test was used for statistical analysis of the measured results.
(§3) ^18F-FMISO (radiochemical purity: 96% or more) was administered to the four CKD models prepared in Example 1 at 18.7±1.1 MBq/rat and to four healthy models at 19.5±0.69 MBq/rat, and after 80 minutes from the administration, static imaging was performed using a PET system for animals (eXplore Vista from GE). One case each from each of the groups was placed under anesthesia again after the PET imaging, and imaging was performed after 180 minutes from the administration. The collection conditions were 10 minutes at an energy window of 250 to 700 keV, and the collected data were reconstructed and imaged using the 3D-OSEM method. From the images, the average of maximum values of SUV of the kidneys (the region of interest (ROI) was set excluding the renal pelvis) and the average value of SUV of normal tissue in each slice were measured. Based on these values, the lesion-to-normal tissue ratio and the normal kidney-to-normal tissue ratio were used for evaluation. Student's t-test was used for statistical analysis of the measured results.

[2] = tested on: CKD model animals (adriamycin-treated Lewis rats); test: Experiment of in vivo distribution in CKD models; conditions: 100 minutes after administration
Protocol: as §1
(§4) After the completion of the PET imaging in Example 2, these rats were placed under anesthesia until 100 minutes after the administration, and were sacrificed by exsanguination. Then, the left and right kidneys, blood, brain, lung, heart, liver, spleen, stomach, small intestine, large intestine, adrenal gland, muscles, bones, fat around the kidneys, urine, and the remaining whole body were extracted, and weights and amounts of radioactivity were measured. Student's t-test was used for statistical analysis of the results.
as §4, with “Three cases from each of” for “After”, “groups that underwent” for “completion of”, “imaging after 80 minutes from the administration” for “imaging”, “5, as well as one case from each of the groups that had not undergone PET imaging,” for “2, these rats”

[3] = tested on: healthy models (physiological saline-treated Lewis rats); test: Experiment of in vivo distribution in healthy models; conditions: healthy model; 100 minutes after administration
Protocol: (§5) As healthy models, four cases prepared by administering an equivalent amount of physiological saline instead of adriamycin were used.
as §4
as §4, with “Three cases from each of” for “After”, “groups that underwent” for “completion of”, “imaging after 80 minutes from the administration” for “imaging”, “5, as well as one case from each of the groups that had not undergone PET imaging,” for “2, these rats”

[4] = tested on: healthy models (physiological saline-treated Lewis rats), kidneys excluding the renal pelvis; test: PET imaging (static, SUV) in healthy models; format: in vivo
Protocol: as §5, §2, §3

[5] = CKD model group, PET after 80 min from administration
[6] = CKD model group, PET after 80 min from administration, ROI excluding renal pelvis
[7] = CKD model, one case, PET after 180 min from administration
[8] = healthy model group, PET after 80 min from administration
[9] = healthy model group, PET after 80 min from administration, ROI excluding renal pelvis
[10] = healthy model, one case, PET after 180 min from administration

## O=[N+]([O-])c1nccn1CC(O)C[18F] (stereo not shown) [^18F-FMISO, 1-[^18F]fluoro-3-(2-nitro-1H-imidazol-1-yl)-2-propanol]
[1]; [5]
  Normal Tissue SUV Average Value: 0.94 ± 0.11
  Renal Tissue (Lesion or Normal)-to-Normal Tissue Ratio, Left: 2.11 ± 0.14
  Renal Tissue (Lesion or Normal)-to-Normal Tissue Ratio, Right: 2.22 ± 0.10
  Renal Tissue SUV Maximum Value, Left: 1.97 ± 0.15
[1]; [6]
  Renal Tissue SUV Maximum Value, Right: 2.08 ± 0.22
[1]; [7]
  Normal Tissue SUV Average Value: 0.87
  Renal Tissue (Lesion or Normal)-to-Normal Tissue Ratio, Left: 3.17
  Renal Tissue (Lesion or Normal)-to-Normal Tissue Ratio, Right: 2.87
  Renal Tissue SUV Maximum Value, Left: 2.77
  Renal Tissue SUV Maximum Value, Right: 2.51
[1]; PET images after 180 minutes compared with after 80 minutes from administration
  Uptake in renal cortex versus renal pelvis: a tendency toward a higher uptake in the renal cortex than in the renal pelvis
[1]; after 180 minutes versus after 80 minutes from administration
  Change of SUV maximum value (ROI analysis): a tendency for the SUV maximum value to increase more than that after 80 minutes from the administration
[1]; summary of Examples 2 to 6
  Uptake into renal tissue excluding the renal pelvis, CKD models versus healthy models: uptaken into the renal tissue excluding the renal pelvis in the CKD models significantly, compared with the healthy models
[2]
  In vivo distribution (radioactivity uptake), Blood: 0.44 ± 0.02
  In vivo distribution (radioactivity uptake), Heart: 0.53 ± 0.01
  In vivo distribution (radioactivity uptake), Kidney (Left): 1.08 ± 0.28
  In vivo distribution (radioactivity uptake), Kidney (Right): 1.09 ± 0.29
  In vivo distribution (radioactivity uptake), Large Intestine: 1.14 ± 0.10
  In vivo distribution (radioactivity uptake), Liver: 0.89 ± 0.28
  In vivo distribution (radioactivity uptake), Lung: 0.48 ± 0.02
  In vivo distribution (radioactivity uptake), Muscles: 0.47 ± 0.02
  In vivo distribution (radioactivity uptake), Small Intestine: 1.54 ± 0.67
  In vivo distribution (radioactivity), Urine: 2.60 ± 2.16 % ID
[3]
  In vivo distribution (radioactivity uptake), Blood: 0.30 ± 0.02
  In vivo distribution (radioactivity uptake), Heart: 0.34 ± 0.02
  In vivo distribution (radioactivity uptake), Kidney (Left): 0.53 ± 0.03
  In vivo distribution (radioactivity uptake), Kidney (Right): 0.55 ± 0.03
  In vivo distribution (radioactivity uptake), Large Intestine: 1.52 ± 0.15
  In vivo distribution (radioactivity uptake), Liver: 0.50 ± 0.04
  In vivo distribution (radioactivity uptake), Lung: 0.31 ± 0.02
  In vivo distribution (radioactivity uptake), Muscles: 0.30 ± 0.02
  In vivo distribution (radioactivity uptake), Small Intestine: 0.74 ± 0.11
  In vivo distribution (radioactivity), Urine: 9.50 ± 1.75 % ID
[4]; [8]
  Normal Tissue SUV Average Value: 0.89 ± 0.03
  Renal Tissue (Lesion or Normal)-to-Normal Tissue Ratio, Left: 1.95 ± 0.05
  Renal Tissue (Lesion or Normal)-to-Normal Tissue Ratio, Right: 1.89 ± 0.13
  Renal Tissue SUV Maximum Value, Left: 1.74 ± 0.08
[4]; [9]
  Renal Tissue SUV Maximum Value, Right: 1.68 ± 0.14
[4]; [10]
  Normal Tissue SUV Average Value: 0.72
  Renal Tissue (Lesion or Normal)-to-Normal Tissue Ratio, Left: 2.31
  Renal Tissue (Lesion or Normal)-to-Normal Tissue Ratio, Right: 2.26
  Renal Tissue SUV Maximum Value, Left: 1.67
  Renal Tissue SUV Maximum Value, Right: 1.63

## O=[N+]([O-])c1nccn1CC(CO)(CO)C[18F] [^18F-HIC101, 2-[^18F]fluoromethyl-2-((2-nitro-1H-imidazol-1-yl)methyl)-1,3-propanediol]
[1]; [5]
  Normal Tissue SUV Average Value: 0.46 ± 0.04^$
  Renal Tissue (Lesion or Normal)-to-Normal Tissue Ratio, Left: 11.59 ± 1.88
  Renal Tissue (Lesion or Normal)-to-Normal Tissue Ratio, Right: 11.33 ± 1.57
  Renal Tissue SUV Maximum Value, Left: 5.25 ± 0.55
[1]; [6]
  Renal Tissue SUV Maximum Value, Right: 5.17 ± 0.70
[1]; MIP PET image of FIG. 1, after 80 minutes from administration
  SUV maximum value of renal tissue in the example shown in FIG. 1: 10
[1]; individual CKD model of FIG. 3, (left)
  SUV maximum value of the CKD model examined for HIF-1α expression, (left): 4.30
[1]; individual CKD model of FIG. 3, (right)
  SUV maximum value of the CKD model examined for HIF-1α expression, (right): 5.12
[1]; summary of Examples 2 to 6
  Comparison of uptake in the CKD models between the two agents: higher than the uptake of ^18F-FMISO
  Uptake into renal tissue excluding the renal pelvis, CKD models versus healthy models: uptaken into the renal tissue excluding the renal pelvis in the CKD models significantly, compared with the healthy models
[2]
  In vivo distribution (radioactivity uptake), Blood: 0.16 ± 0.04
  In vivo distribution (radioactivity uptake), Heart: 0.18 ± 0.04
  In vivo distribution (radioactivity uptake), Kidney (Left): 2.11 ± 0.44
  In vivo distribution (radioactivity uptake), Kidney (Right): 2.60 ± 0.58
  In vivo distribution (radioactivity uptake), Large Intestine: 3.17 ± 0.08
  In vivo distribution (radioactivity uptake), Liver: 0.34 ± 0.05
  In vivo distribution (radioactivity uptake), Lung: 0.18 ± 0.05
  In vivo distribution (radioactivity uptake), Muscles: 0.26 ± 0.04
  In vivo distribution (radioactivity uptake), Small Intestine: 0.25 ± 0.82
  In vivo distribution (radioactivity), Urine: 29.9 ± 14.9 % ID
[3]
  In vivo distribution (radioactivity uptake), Blood: 0.08 ± 0.03
  In vivo distribution (radioactivity uptake), Heart: 0.09 ± 0.03
  In vivo distribution (radioactivity uptake), Kidney (Left): 1.17 ± 0.61
  In vivo distribution (radioactivity uptake), Kidney (Right): 1.01 ± 0.24
  In vivo distribution (radioactivity uptake), Large Intestine: 0.32 ± 0.44
  In vivo distribution (radioactivity uptake), Liver: 0.23 ± 0.06
  In vivo distribution (radioactivity uptake), Lung: 0.08 ± 0.03
  In vivo distribution (radioactivity uptake), Muscles: 0.09 ± 0.03
  In vivo distribution (radioactivity uptake), Small Intestine: 4.50 ± 0.70
  In vivo distribution (radioactivity), Urine: 34.4 ± 23.3 % ID
[4]; [8]
  Normal Tissue SUV Average Value: 0.37 ± 0.06
  Renal Tissue (Lesion or Normal)-to-Normal Tissue Ratio, Left: 3.69 ± 0.37
  Renal Tissue (Lesion or Normal)-to-Normal Tissue Ratio, Right: 3.77 ± 0.66
  Renal Tissue SUV Maximum Value, Left: 1.37 ± 0.28
[4]; [9]
  Renal Tissue SUV Maximum Value, Right: 1.42 ± 0.43
[4]; individual healthy model of FIG. 3
  SUV maximum value of the healthy model examined for HIF-1α expression: 1.06
